# Experimental data from patent US10745408B2, “Biologically active taxane analogs and methods of treatment by oral administration” (Tapestry Pharmaceuticals, Inc., priority 2007, dated 2020).
# What was measured:
# [1] = system: bovine microtubule protein; assay: In vitro ED50 MT polymerization study (DAPI fluorescence tubulin assay); assay type: biochemical; conditions: tubulin polymerization, 37° C. 30 minutes, maximum assembly = 25 μM paclitaxel
# Procedure: In Vitro ED50 MT Polymerization Study
# In this tubulin binding assay, microtubule protein (MTP) is used as a substrate. The assay contains bovine tubulin plus microtubule associated proteins (MAP). MTP is polymerized into microtubules in the presence of DAPI (4′,6′-diamidino-2-phenylindole), a fluorescent compound. DAPI binds to tubulin; when microtubules are formed and there is an enhancement of fluorescence. The microtubule formation is measured as a function of time, using a fluorescence plate reader. […] The method used is based on the procedure published by Donna M. Barron, et al, “Fluorescence-based high-throughput assay for antimicrotuble drugs” Analytical Biochemistry, 315: 49-56, 2003, which is incorporated by reference in its entirety. The excitation wavelength, in that assay, was set at 370 nm and the emission wavelength was set at 450 nm for the DAPI experiments.
# A Bio-Tek FL 600 microplate Fluorescence Reader was used to measure the relative level of fluorescence in the DAPI assay.
# Assays were conducted in 96-well plates. Each well contained a total volume of 0.1 mL consisting of PEM buffer (0.1 M Pipes, 1 mM EGTA, 1 mM MgCl2, pH 6.9), 0.2 mg bovine microtubule protein, and 10 μg of DAPI. […] The final DMSO concentration was 4%. The plates were incubated at 37° C. for 30 minutes and read in a fluorescence plate reader using an excitation wavelength of 360 nm and an emission wavelength of 460 nm. Fluorescence values were corrected for the sample without compound.
# Experiments were done twice in triplicate. Results were subsequently combined and fit to a non-linear regression program.
# PC-3 = assay: MTS proliferation assay, prostate PC-3; assay type: cell-based; conditions: Homo sapiens
# Procedure: MTS Proliferation Assay (Promega)
# Day 1: Cells were plated in appropriate growth medium at 5×10^3 per well in 100 ul in 96 well tissue culture plates, Falcon, one for each drug to be tested. Col 1 was blank; it contained no cells, just medium. The plates were incubated overnight at 37° C., 5% CO2 to allow attachment.
# Day 2: Added 120 ul growth medium in wells of 96-well “dilution plates” (one for each drug) and let sit in 37° C. incubator for about 1 hr.
# Thawed DMSO drug stocks (usually at 10 mM). Each drug was diluted 6 ul into a tube with 3 ml growth medium, to 20 μM.
# Aspirated medium from col 12 of a dilution plate; added 200-300 ul of 20 uM drug to wells of col 12. Made serial dilution down this 96-well plate: for a […] dilution pattern, moved 60 ul from col 12 to col 11, mixed 4-5 times (using 8 place multi-pipettor), moved 60 ul to col 10, etc. stopping at col 3.
# Moved 100 ul of medium+drug from dilution plate to a cell plate, i.e. col 1 from drug plate (blank=no cells) to col 1 of cell plate, etc. up to col 12. Col 2 contained cells with no drug. […]
# Day 4 or 5: Terminated the assay 48 to 72 hrs after drug addition. […] When the color turned dark in control wells (col 2), and was still light in col 12, the absorbance at 490 nm was read on a plate reader; the results were used to calculate IC50.
compound,measurement,setting,value
C=C[C@H]1O[C@H]2C[C@H]3OC[C@@]3(OC(C)=O)[C@H]3[C@H](OC(=O)c4ccccc4)[C@]4(C(C)(C)O)CC(OC(=O)[C@H](O)C(CC(C)C)NC(=O)OC(C)(C)C)C(C)=C4[C@H](OC(C)=O)[C@H](O1)[C@]23C (stereo partly drawn) [S-(1)],EC50,[1],1580 ± 460 nM
same,IC50,PC-3,0.03 nM
